Laboratory results published in patent publication US10597388B2, “Pyridazinone herbicides” (FMC CORPORATION, priority 2014, dated 2020).

Experiments:
Type in all cases: in vivo
[1] = tested on: oat, wild (wild oat, Avena fatua); experiment: Test C greenhouse herbicide test, postemergence
Outline: (§1)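 Test chemicals were applied postemergence to greenhouse plants at the 1- to 4-leaf stage (2–18 cm tall) growing in peat/vermiculite medium. After 13–15 d, injury was rated visually against untreated controls on a 0–100 scale (0 = no effect, 100 = complete control).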

[2] = tested on: chickweed (common chickweed, Stellaria media); experiment: Test C greenhouse herbicide test, postemergence
Outline: as §1

kochia (Kochia scoparia) = experiment: Test C greenhouse herbicide test, postemergence
Outline: as §1

[3] = tested on: ducksalad (Heteranthera limosa); experiment: Test B flooded paddy test; conditions: 250 g ai/ha, Flood; visual rating on scale of 0 to 100 where 0 is no effect and 100 is complete control; 13 to 15 d after treatment
Outline: (§2)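 Ratings use a 0-100 visual scale, where 100 is complete control, and compare treated plants with controls after 13 to 15 d of greenhouse growth. Compound went straight into paddy water kept 3 cm over the soil surface, applied to seedlings at the 2-leaf stage.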

rice (Oryza sativa) = experiment: Test B flooded paddy test; conditions: 250 g ai/ha, Flood; visual rating on scale of 0 to 100 where 0 is no effect and 100 is complete control; 13 to 15 d after treatment
Outline: as §2

[4] = tested on: barnyardgrass (Echinochloa crus-galli); experiment: Test B flooded paddy test; conditions: 250 g ai/ha, Flood; visual rating on scale of 0 to 100 where 0 is no effect and 100 is complete control; 13 to 15 d after treatment
Outline: as §2

[5] = tested on: sedge, umbrella (small-flower umbrella sedge, Cyperus difformis); experiment: Test B flooded paddy test; conditions: 250 g ai/ha, Flood; visual rating on scale of 0 to 100 where 0 is no effect and 100 is complete control; 13 to 15 d after treatment
Outline: as §2

soybean (Glycine max) = experiment: Test C greenhouse herbicide test, pre- and postemergence
Text: (§3) Seeds of plant species selected from blackgrass (Alopecurus myosuroides), ryegrass, Italian (Italian ryegrass, Lolium multiflorum), wheat (winter wheat, Triticum aestivum), galium (catchweed bedstraw, Galium aparine), corn (Zea mays), large crabgrass, large (large crabgrass, Digitaria sanguinalis), foxtail, giant (giant foxtail, Setaria faberii), johnsongrass (Sorghum halepense), lambsquarters (Chenopodium album), morningglory (Ipomoea coccinea), nutsedge, yellow (yellow nutsedge, Cyperus esculentus), pigweed (Amaranthus retroflexus), ragweed (common ragweed, Ambrosia elatior), soybean (Glycine max), barnyardgrass (Echinochloa crus-galli), oilseed rape (Brassica napus), waterhemp (common waterhemp, Amaranthus rudis), and velvetleaf (Abutilon theophrasti) were planted into a blend of loam soil and sand and treated preemergence with test chemicals formulated in a non-phytotoxic solvent mixture which included a surfactant.
(§4) At the same time, plants selected from these crop and weed species and also chickweed (common chickweed, Stellaria media), kochia (Kochia scoparia), and oat, wild (wild oat, Avena fatua), were planted in pots containing Redi-Earth® planting medium (Scotts Company, 14111 Scottslawn Road, Marysville, Ohio 43041) comprising spaghnum peat moss, vermiculite, wetting agent and starter nutrients and treated with postemergence applications of test chemicals formulated in the same manner. Plants ranged in height from 2 to 18 cm (1- to 4-leaf stage) for postemergence treatments. Treated plants and controls were maintained in a greenhouse for 13 to 15 d, after which time all species were compared to controls and visually evaluated. Plant response ratings, summarized in Table C, are based on a scale of 0 to 100 where 0 is no effect and 100 is complete control. A dash (-) response means no test result.

[6] = tested on: nutsedge, yellow (yellow nutsedge, Cyperus esculentus); experiment: as above
Text: as §3, §4

[7] = tested on: johnsongrass (Sorghum halepense); experiment: as above
Text: as §3, §4

[8] = tested on: galium (catchweed bedstraw, Galium aparine); experiment: Test A greenhouse herbicide test, postemergence; conditions: for Plant response rating, Galium: 125 g ai/ha, 0 to 100 scale where 0 is no effect and 100 is complete control; for Galium plant response rating: 500 g ai/ha, 0 to 100 scale, 0 is no effect, 100 is complete control
Outline: (§5)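 Seedlings in a loam soil and sand mix received formulated compound postemergence at the one- to two-leaf stage. Greenhouse holding lasts approximately 10 d, then injury is scored visually relative to untreated plants, 0 meaning no effect and 100 complete control.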

[9] = tested on: blackgrass (Alopecurus myosuroides); experiment: Test A greenhouse herbicide test, postemergence; conditions: for Plant response rating, Blackgrass: 125 g ai/ha, 0 to 100 scale where 0 is no effect and 100 is complete control; for Blackgrass plant response rating: 500 g ai/ha, 0 to 100 scale, 0 is no effect, 100 is complete control
Outline: as §5

[10] = Postemergence, 31 g ai/ha, 0 to 100 scale (0 no effect, 100 complete control)
[11] = Postemergence, 125 g ai/ha, scale 0 to 100, 0 is no effect, 100 is complete control
[12] = Postemergence, 250 g ai/ha, scale 0 to 100, 0 no effect, 100 complete control, 13 to 15 d
[13] = postemergence, 62 g ai/ha, scale 0 to 100, 0 no effect, 100 complete control
[14] = Preemergence, 31 g ai/ha, scale 0 to 100, 0 is no effect, 100 is complete control
[15] = Preemergence, 62 g ai/ha, scale 0 to 100, 0 is no effect, 100 is complete control
[16] = Preemergence, 125 g ai/ha, scale 0 to 100, 0 is no effect, 100 is complete control
[17] = Preemergence, 250 g ai/ha, scale 0 to 100, 0 no effect, 100 complete control

Cc1nn(C)c(=O)c(-c2ccc(F)c3ccccc23)c1O [Compound 41]
Oat, Wild plant response rating [1, 10]: 55
Plant response rating, Oat, Wild [1, 11]: 90
Plant response rating, Oat, Wild [1, 12]: 95
Oat, Wild plant response rating [1, 13]: 90
Chickweed plant response rating [2, 10]: 95
Plant response rating, Chickweed [2, 11]: 90
Plant response rating, Chickweed [2, 12]: 100
Chickweed plant response rating [2, 13]: 95
Kochia plant response rating (kochia (Kochia scoparia); [10]): 100
Plant response rating, Kochia (kochia (Kochia scoparia); [11]): 100
Plant response rating, Kochia (kochia (Kochia scoparia); [12]): 100
Kochia plant response rating (kochia (Kochia scoparia); [13]): 100
Plant response rating, Ducksalad [3]: 40
Plant response rating, Rice (rice (Oryza sativa)): 0
Plant response rating, Barnyardgrass [4]: 30
Plant response rating, Sedge, Umbrella [5]: 40
Soybean plant response rating (soybean (Glycine max); [10]): 15
Plant response rating, Soybean (soybean (Glycine max); [11]): 20
Plant response rating, Soybean (soybean (Glycine max); [12]): 15
Plant response rating, Soybean (soybean (Glycine max); [14]): 0
Plant response rating, Soybean (soybean (Glycine max); [15]): 20
Plant response rating, Soybean (soybean (Glycine max); [16]): 50
Soybean plant response rating (soybean (Glycine max); [17]): 55
Soybean plant response rating (soybean (Glycine max); [13]): 15
Nutsedge, Yellow plant response rating [6, 10]: 65
Plant response rating, Nutsedge, Yellow [6, 11]: 65
Plant response rating, Nutsedge, Yellow [6, 12]: 80
Plant response rating, Nutsedge, Yellow [6, 14]: 60
Plant response rating, Nutsedge, Yellow [6, 15]: 75
Plant response rating, Nutsedge, Yellow [6, 16]: 75
Nutsedge, Yellow plant response rating [6, 17]: 80
Nutsedge, Yellow plant response rating [6, 13]: 65
Johnsongrass plant response rating [7, 10]: 5
Plant response rating, Johnsongrass [7, 11]: 10
Plant response rating, Johnsongrass [7, 12]: 35
Plant response rating, Johnsongrass [7, 14]: 0
Plant response rating, Johnsongrass [7, 15]: 50
Plant response rating, Johnsongrass [7, 16]: 35
Johnsongrass plant response rating [7, 17]: 35
Johnsongrass plant response rating [7, 13]: 10
Plant response rating, Galium [8]: 80
Galium plant response rating [8]: 100
Plant response rating, Blackgrass [9]: 70
Blackgrass plant response rating [9]: 90

CCc1sc2ccc(C)cc2c1-c1c(O)c(C)nn(C)c1=O [Compound 47]
Oat, Wild plant response rating [1, 10]: 5
Plant response rating, Oat, Wild [1, 11]: 30
Plant response rating, Oat, Wild [1, 12]: 50
Oat, Wild plant response rating [1, 13]: 10
Chickweed plant response rating [2, 10]: 90
Plant response rating, Chickweed [2, 11]: 98
Plant response rating, Chickweed [2, 12]: 98
Chickweed plant response rating [2, 13]: 90
Kochia plant response rating (kochia (Kochia scoparia); [10]): 75
Plant response rating, Kochia (kochia (Kochia scoparia); [11]): 95
Plant response rating, Kochia (kochia (Kochia scoparia); [12]): 98
Kochia plant response rating (kochia (Kochia scoparia); [13]): 90
Plant response rating, Ducksalad [3]: 0
Plant response rating, Rice (rice (Oryza sativa)): 0
Plant response rating, Barnyardgrass [4]: 0
Plant response rating, Sedge, Umbrella [5]: 0
Soybean plant response rating (soybean (Glycine max); [10]): 0
Plant response rating, Soybean (soybean (Glycine max); [11]): 10
Plant response rating, Soybean (soybean (Glycine max); [12]): 15
Plant response rating, Soybean (soybean (Glycine max); [14]): 0
Plant response rating, Soybean (soybean (Glycine max); [15]): 0
Plant response rating, Soybean (soybean (Glycine max); [16]): 10
Soybean plant response rating (soybean (Glycine max); [17]): 30
Soybean plant response rating (soybean (Glycine max); [13]): 10
Nutsedge, Yellow plant response rating [6, 10]: 40
Plant response rating, Nutsedge, Yellow [6, 11]: 80
Plant response rating, Nutsedge, Yellow [6, 12]: 90
Plant response rating, Nutsedge, Yellow [6, 14]: 35
Plant response rating, Nutsedge, Yellow [6, 15]: 45
Plant response rating, Nutsedge, Yellow [6, 16]: 75
Nutsedge, Yellow plant response rating [6, 17]: 85
Nutsedge, Yellow plant response rating [6, 13]: 70
Johnsongrass plant response rating [7, 10]: 10
Plant response rating, Johnsongrass [7, 11]: 20
Plant response rating, Johnsongrass [7, 12]: 25
Plant response rating, Johnsongrass [7, 14]: 0
Plant response rating, Johnsongrass [7, 15]: 0
Plant response rating, Johnsongrass [7, 16]: 0
Johnsongrass plant response rating [7, 17]: 0
Johnsongrass plant response rating [7, 13]: 10
Plant response rating, Galium [8]: 90
Galium plant response rating [8]: 100
Plant response rating, Blackgrass [9]: 60
Blackgrass plant response rating [9]: 70

CCc1sc2c(C)cc(C)cc2c1-c1c(O)c(C)nn(C)c1=O [Compound 57]
Oat, Wild plant response rating [1, 10]: 20
Plant response rating, Oat, Wild [1, 11]: 45
Plant response rating, Oat, Wild [1, 12]: 60
Oat, Wild plant response rating [1, 13]: 35
Chickweed plant response rating [2, 10]: 90
Plant response rating, Chickweed [2, 11]: 95
Plant response rating, Chickweed [2, 12]: 100
Chickweed plant response rating [2, 13]: 95
Kochia plant response rating (kochia (Kochia scoparia); [10]): 50
Plant response rating, Kochia (kochia (Kochia scoparia); [11]): 70
Plant response rating, Kochia (kochia (Kochia scoparia); [12]): 95
Kochia plant response rating (kochia (Kochia scoparia); [13]): 65
Plant response rating, Ducksalad [3]: 0
Plant response rating, Rice (rice (Oryza sativa)): 0
Plant response rating, Barnyardgrass [4]: 0
Plant response rating, Sedge, Umbrella [5]: 0
Soybean plant response rating (soybean (Glycine max); [10]): 0
Plant response rating, Soybean (soybean (Glycine max); [11]): 0
Plant response rating, Soybean (soybean (Glycine max); [12]): 5
Plant response rating, Soybean (soybean (Glycine max); [14]): 0
Plant response rating, Soybean (soybean (Glycine max); [15]): 0
Plant response rating, Soybean (soybean (Glycine max); [16]): 0
Soybean plant response rating (soybean (Glycine max); [17]): 0
Soybean plant response rating (soybean (Glycine max); [13]): 0
Nutsedge, Yellow plant response rating [6, 10]: 90
Plant response rating, Nutsedge, Yellow [6, 11]: 90
Plant response rating, Nutsedge, Yellow [6, 12]: 90
Plant response rating, Nutsedge, Yellow [6, 14]: 10
Plant response rating, Nutsedge, Yellow [6, 15]: 30
Plant response rating, Nutsedge, Yellow [6, 16]: 90
Nutsedge, Yellow plant response rating [6, 17]: 95
Nutsedge, Yellow plant response rating [6, 13]: 90
Johnsongrass plant response rating [7, 10]: 5
Plant response rating, Johnsongrass [7, 11]: 5
Plant response rating, Johnsongrass [7, 12]: 10
Plant response rating, Johnsongrass [7, 14]: 0
Plant response rating, Johnsongrass [7, 15]: 0
Plant response rating, Johnsongrass [7, 16]: 0
Johnsongrass plant response rating [7, 17]: 0
Johnsongrass plant response rating [7, 13]: 5
Plant response rating, Galium [8]: 100
Galium plant response rating [8]: 100
Plant response rating, Blackgrass [9]: 30
Blackgrass plant response rating [9]: 60

Cc1ccc2sc(C)c(-c3c(OC(=O)OC(C)C)c(C)nn(C)c3=O)c2c1 [Compound 66]
Oat, Wild plant response rating [1, 10]: 55
Plant response rating, Oat, Wild [1, 11]: 90
Plant response rating, Oat, Wild [1, 12]: 90
Oat, Wild plant response rating [1, 13]: 80
Chickweed plant response rating [2, 10]: 90
Plant response rating, Chickweed [2, 11]: 95
Plant response rating, Chickweed [2, 12]: 95
Chickweed plant response rating [2, 13]: 95
Kochia plant response rating (kochia (Kochia scoparia); [10]): 90
Plant response rating, Kochia (kochia (Kochia scoparia); [11]): 90
Plant response rating, Kochia (kochia (Kochia scoparia); [12]): 98
Kochia plant response rating (kochia (Kochia scoparia); [13]): 90
Plant response rating, Ducksalad [3]: 0
Plant response rating, Rice (rice (Oryza sativa)): 0
Plant response rating, Barnyardgrass [4]: 0
Plant response rating, Sedge, Umbrella [5]: 0
Soybean plant response rating (soybean (Glycine max); [10]): 0
Plant response rating, Soybean (soybean (Glycine max); [11]): 10
Plant response rating, Soybean (soybean (Glycine max); [12]): 5
Plant response rating, Soybean (soybean (Glycine max); [14]): 0
Plant response rating, Soybean (soybean (Glycine max); [15]): 0
Plant response rating, Soybean (soybean (Glycine max); [16]): 0
Soybean plant response rating (soybean (Glycine max); [17]): 0
Soybean plant response rating (soybean (Glycine max); [13]): 10
Nutsedge, Yellow plant response rating [6, 10]: 65
Plant response rating, Nutsedge, Yellow [6, 11]: 85
Plant response rating, Nutsedge, Yellow [6, 12]: 85
Plant response rating, Nutsedge, Yellow [6, 14]: 35
Plant response rating, Nutsedge, Yellow [6, 15]: 35
Plant response rating, Nutsedge, Yellow [6, 16]: 30
Nutsedge, Yellow plant response rating [6, 17]: 65
Nutsedge, Yellow plant response rating [6, 13]: 70
Johnsongrass plant response rating [7, 10]: 5
Plant response rating, Johnsongrass [7, 11]: 5
Plant response rating, Johnsongrass [7, 12]: 15
Plant response rating, Johnsongrass [7, 14]: 10
Plant response rating, Johnsongrass [7, 15]: 25
Plant response rating, Johnsongrass [7, 16]: 55
Johnsongrass plant response rating [7, 17]: 65
Johnsongrass plant response rating [7, 13]: 5
Plant response rating, Galium [8]: 90
Galium plant response rating [8]: 90
Plant response rating, Blackgrass [9]: 60
Blackgrass plant response rating [9]: 80
